Experimental data as given in patent publication US20100311714A1, “1H-IMIDAZO[4,5-c]QUINOLINONE COMPOUNDS” (priority 2009, published 2010).
≈ marks a conversion by molar mass, not a printed value.

Assays:
[1] = High-throughput equilibrium solubility at pH 6.8; assay type: physicochemical; settings: pH 6.8, aqueous buffer, thermodynamic from solid; read-out: HT-Eq Sol/pH 6.8
Text: (§1) The physicochemical properties of relevance for the absorption of the compound, such as the solubility and the membrane permeability, especially at a pH close to neutral pH can be measured using the procedure as described by L. ZHOU et al. in JOURNAL OF PHARMACEUTICAL SCIENCES, VOL. 96, NO. 11, p. 3052-3071 (2007) for the solubility at pH 6.8 and the procedure as described by F. Wohnsland and B. Faller in Journal of Medicinal Chemistry Vol 44, p. 923-930 (2001) for the Parallel Artificial Membrane Permeability Assay (PAMPA) at pH 6.8.

[2] = test system: PKB Ser473 phosphorylation in Rat1-myr-HA-p110 alpha cells; test: Reverse protein array, PKB Ser473 phosphorylation in Rat1-myr-HA-p110 alpha cells; assay type: cell-based; settings: Rattus norvegicus, 0.5 h, 30 minutes compound incubation, read-out: p-PKB/IC50_alpha
Experimental: (§2) No. 15140-114) and 10 μg/ml Puromycine (Sigma, cat. No. P9620).
(§3) The Rat1-myr-HA-p110 alpha, beta and delta cells were trypsinized and counted with a CASY TT cell counter (Schärfe System GmbH, Reutlingen Germany). The cells were diluted in fresh DMEM complete medium and 3×10^4 cells/150 μl/well seeded in 96-well TPP-tissue culture plates (TPP, cat. No. 92096). The plates were incubated at 37° C. and 5% CO2 under humidified condition for at least 20 h. Compound of formula I working solutions were prepared freshly as serial 8 step dilutions (vol/vol) in DMSO on the day of the experiment. The working solutions were further diluted 1/500 in cell culture medium to get final compound concentrations of 10, 3.333, 1.111, 0.370, 0.123, 0.041, 0.014, 0.005 μM. The final DMSO concentration was kept constant at 0.2%. cell culture medium containing 0.2% DMSO was used as vehicle treatment control. Post incubation, the cells were treated with the serial compound dilution. 50 μl of the compound medium mixture was added to the wells containing cells and 150 μl DMEM medium and incubated for 30 minutes (37° C., 5% CO2). After 30 minutes of incubation, the medium mixture was quickly removed by aspiration. For cell lysis, a mixture of 10% CLB1 CeLyA lysis buffer (Zeptosens, cat. No. 9000), 90% CSBL1 CeLyA spotting buffer (Zeptosens, cat. No. 9020) was freshly prepared and supplemented with 1% Octyl β-D-glucopyranoside (SIGMA, cat. No. 08001-5G) and 1 mM Na-Orthovanadate (Sigma, cat No. S-6508). 50 μl of the described lysis buffer mix was added to each well, followed by 10 minutes of incubation on ice. After an additional freeze-thaw cycle, another 50 μl of the lysis buffer mix without Octyl β-D-glucopyranoside was added to the wells, and 90 μl of the cell lysate was transferred to a 96-well V-bottom plate (Fisher Scientific, cat. No. 6067Y), followed by a centrifugation step (5 min, 1500 rpm at 19° C. in an Eppendorf 5810R centrifuge) to remove the unlysed cell debris.
(§4) The samples were spotted onto ZeptoMARK® PWG protein microarray chips (Zeptosens, Witterswil, Switzerland) with the piezoelectric microdispense-based, non-contact Nano-Plotter 2.1 (GeSiM, Grosserkmannsdorf, Germany). Each sample was spotted at 4 different sample concentrations (d1=100%, d2=75%, d3=50%, d4=25%) by diluting the cell lysate with the corresponding volume of lysis buffer mix. After spotting the ZeptoMARK® protein microarrays, the chips are incubated for 1 hour at 37° C. To receive a uniform blocking result, the CeLyA blocking buffer BB1 (Zeptosens, cat. No. 9040) is administered via an ultrasonic nebulizer. After 20 minutes of blocking the chips are extensively rinsed with deionized water (Milli-Q quality, 18MΩ×cm) and dried in a nitrogen air flow.
(§5) After the sample spotting and blocking procedure, the ZeptoMARK® chips were transferred to the ZeptoCARRIER (Zeptosens, cat. No. 1100), whose six flow cells individually address the six arrays on a chip, and washed twice with 200 μl CAB1 CeLyA assay buffer (Zeptosens, cat. No. 9032). The assay buffer was then aspirated and each compartment incubated with 100 μl of the primary target antibody (pAkt Ser473; CST#9271) at RT over night. Post incubation, the primary antibody was removed, the arrays washed twice with CAB1 buffer and further incubated with 100 μl of Alexa fluor 647-labeled anti rabbit IgG Fab fragments (Invitrogen; #Z25305) for one hour at RT in the dark. After incubation, the arrays were washed twice with 200 μl CAB1 buffer. The fluorescence of the target-bound Fab fragments is read out on the ZeptoReader (Zeptosens, Witterswil, Switzerland) using a laser (excitation wavelength 635 nm) and a CCD camera. The fluorescence signal was assessed with exposure times of 1, 3, 5 and 10 seconds, depending on the intensity of the signal. The resulting four images taken per array are stored as 16-bit TIF files. […]

[3] = test system: PKB Ser473 phosphorylation in Rat1-myr-HA-p110 beta cells; test: Reverse protein array, PKB Ser473 phosphorylation in Rat1-myr-HA-p110 beta cells; assay type: cell-based; settings: Rattus norvegicus, 0.5 h, 30 minutes compound incubation, read-out: p-PKB/IC50_beta
Experimental: as §2, §3, §4, §5

[4] = test system: PKB Ser473 phosphorylation in Rat1-myr-HA-p110 delta cells; test: Reverse protein array, PKB Ser473 phosphorylation in Rat1-myr-HA-p110 delta cells; assay type: cell-based; settings: Rattus norvegicus, 0.5 h, 30 minutes compound incubation, read-out: p-PKB/IC50_delta
Experimental: as §2, §3, §4, §5

[5] = Parallel Artificial Membrane Permeability Assay (PAMPA) at pH 6.8; assay type: physicochemical
Text: as §1
The following permeability log Pe was measured for compound of formula (I) as exemplified below: […]

[6] = test system: S6 Ribosomal Protein phosphorylation Ser235/236 in TSC1 null mouse embryo fibroblast (MEF) cells; test: Reverse protein array, S6 Ribosomal Protein phosphorylation in TSC1 null MEF cells; assay type: cell-based; settings: 1 h, TSC1-/- MEFs, 60 minutes, read-out: p-S6 IC50
Experimental: TSC1−/− MEFs cells (provided by D. Kwiatkowski), were cultivated in Dulbecco's modified Eagle's medium (DMEM high Glucose, GIBCO, cat. No. 41956-039) supplemented with 10% heat inactivated fetal bovine calf serum (Amimed, cat. No. 2-01F16-I), 1% L-Glutamine (Invitrogen, cat. No. 25030-02), 1% penicillin-streptomycin (GIBCO, cat. No. 15140-114) at 37° C. in a 5% CO2 and 95% relative humidity atmosphere incubator.
The TSC1−/− cells were trypsinized and counted with a CASY TT cell counter (Schärfe System GmbH, Reutlingen Germany). The cells were diluted in fresh DMEM complete medium and 0.75×10^4 cells/150 μl/well seeded in 96-well TPP-tissue culture plates (TPP, cat. No. 92096). The plates were incubated at 37° C. and 5% CO2 under humidified condition for at least 20 h. Working solutions were prepared freshly as serial 8 step dilutions (vol/vol) in DMSO on the day of the experiment. The working solutions were further diluted 1/5000 in cell culture medium to get final compound concentrations of […]. The final DMSO concentration was kept constant at 0.02%. cell culture medium containing 0.02% DMSO was used as vehicle treatment control. Post incubation, the cells were treated with the serial compound dilution. 50 μl of the compound medium mixture was added to the wells containing cells and 150 μl DMEM medium and incubated for 60 minutes (37° C., 5% CO2). After 60 minutes of incubation, the medium mixture was quickly removed by aspiration. For cell lysis, a mixture of 10% CLB1 CeLyA lysis buffer (Zeptosens, cat. No. 9000), 90% CSBL1 CeLyA spotting buffer (Zeptosens, cat. No. 9020) was freshly prepared and supplemented with 1% Octyl β-D-glucopyranoside (SIGMA, cat. No. 08001-5G) and 1 mM Na-Orthovanadate (Sigma, cat No. S-6508). 50 μl of the described lysis buffer mix was added to each well, followed by 10 minutes of incubation on ice. After an additional freeze-thaw cycle, another 50 μl of the lysis buffer mix without Octyl β-D-glucopyranoside was added to the wells, and 90 μl of the cell lysate was transferred to a 96-well V-bottom plate (Fisher Scientific, cat. No. 6067Y), followed by a centrifugation step (5 min, 1500 rpm at 19° C. in an Eppendorf 5810R centrifuge) to remove the unlysed cell debris.
The spotting of the chips follows the previous described method.
The signal detection and the data analysis follows the previous described method using the pS6 ribosomal protein Ser235/236 (CST, cat. No. #2211) as a primary antibody.

Structure (SMILES)	solubility thermodynamic [1] [µg/mL]	IC50 [2] [nM]	IC50 [3] [nM]	IC50 [4] [nM]	HT-perm/logPe pH6.8 [5]	HT-Perm logPe pH6.8 [5]	IC50 [6] [nM]
COc1nc(N2CCNCC2)ccc1-n1c(=O)n(C)c2cnc3ccc(-c4cnc5c(ccn5C)c4)cc3c21 [Example 9.3, 1-(2-Methoxy-6-piperazin-1-yl-pyridin-3-yl)-3-methyl-8-(1-methyl-1H-pyrrolo[2,3-b]pyridin-5-yl)-1,3-dihydro-imidazo[4,5-c]quinolin-2-one]	21 (≈ 40.3 µM)	6.5	9.39	52.9	–	–	–
COCCOc1cncc(-c2ccc3ncc4c(c3c2)n(-c2cccnc2C)c(=O)n4C)c1 [Example 2.17, 8-[5-(2-Methoxy-ethoxy)-pyridin-3-yl]-3-methyl-1-(2-methyl-pyridin-3-yl)-1,3-dihydro-imidazo[4,5-c]quinolin-2-one]	> 441	85.6	491	803	−4.8	–	–
CNc1ncc(-c2ccc3ncc4c(c3c2)n(-c2ccc(OC)nc2Cl)c(=O)n4C)cn1 [Example 18.2, 1-(2-Chloro-6-methoxy-pyridin-3-yl)-3-methyl-8-(2-methylamino-pyrimidin-5-yl)-1,3-dihydro-imidazo[4,5-c]quinolin-2-one]	3 (≈ 6.7 µM)	7.8	7	12.2	–	−3.5	1
Cc1ccncc1-n1c(=O)n(C)c2cnc3ccc(-c4ccc(N(C)C)nc4)cc3c21 [Example 4.4, 8-(6-Dimethylamino-pyridin-3-yl)-3-methyl-1-(4-methyl-pyridin-3-yl)-1,3-dihydro-imidazo[4,5-c]quinolin-2-one]	2 (≈ 4.87 µM)	167	300	894	−3.8	–	–
Cc1cccnc1-n1c(=O)n(C)c2cnc3ccc(-c4cnc5[nH]ccc5c4)cc3c21 [Example 3.2, 3-Methyl-1-(3-methyl-pyridin-2-yl)-8-(1H-pyrrolo[2,3-b]pyridin-5-yl)-1,3-dihydro-imidazo[4,5-c]quinolin-2-one]	14 (≈ 34.4 µM)	58.5	74.1	109	−5.0	–	–
